For the molecule `CCOC(=O)Cc1ccc(NC(=O)CCc2cnoc2-c2ccc(Cl)cc2)cc1`, the melting point – broadly, the temperature, or range, at which the solid turns liquid – lay within 117 to 118 °C.

Consider `Cc1oc(C=Cc2cccc(Cl)c2)nc1CCl`, for which the melting point was 86 to 87 °C.

As for `CC(=O)Nc1ccccc1CCc1ccccn1`, the melting point fell in the range of 230 to 232 °C.

`Cn1cc(C=O)cc1C(=O)OC(C)(C)C`: the melting point turned out to be 92 °C.

`O=C1CCN(C2c3ccccc3-c3ccccc32)CC1` gave a melting point of 135 °C.

In turn, `CCCOCCNC(=O)C(c1ccccc1)c1ccccc1` yielded a melting point of 77.8 to 78.9 °C.

For `CC(C)CN(CC(C)C)S(=O)(=O)N[C@@H](Cc1ccc(NC(=O)c2c(Cl)cncc2Cl)cc1)C(=O)O`, the melting point is 209 °C.

As to `Cc1cccc(Cl)c1NC(=O)Nc1ccc(CC(=O)NC(CC(C)C)c2ncc(CCC(=O)O)s2)cc1` (stereo not given), the melting point lay in the range of 160 to 162 °C.

Consider `O=C1Nc2cccc(-c3cccc(NC(=O)c4ccc(F)cc4)c3)c2/C1=C/c1ccc[nH]1`, for which the melting point was 130 to 131 °C.

`Cc1cc(N)nc(/C=C/c2nc3cc(Br)cnc3[nH]2)c1` returned a melting point of 280 °C.

As to `O=c1[nH]cccc1Cc1ccccc1`, the melting point was in the range of 158 to 160 °C.

As to `CC1CCC(C(C)C)C(C(=O)NC(C)(C)C)C1` (stereo not given), the melting point fell in the range of 145 to 146 °C.

Turning to `Cn1c(=O)c2c(C#N)cccc2n2cnc(-c3noc(C4CC4)n3)c12`, the melting point was in the range of 115 to 125 °C.

`O=C(Nc1ccc(CN2C(=O)[C@H]3CCC[C@H]3N(C(=O)CN3C(=O)c4ccccc4C3=O)c3ccccc32)cc1)c1ccc(Br)cc1` (relative stereo): the melting point is 175 to 180 °C.

The molecule `COc1ccc(C(=O)Oc2ccc(C(=O)O)cc2CO)cc1C12CC3CC(CC(C3)C1)C2` returned a melting point of 214 to 216 °C.

`CCOC(=O)c1cccc(O)c1O`: the melting point lay within 66 to 67.2 °C.

The molecule `CCC(c1ccccc1)c1c(O)c2c(oc1=O)CCC2` (stereo not given) came in with a melting point of 183 to 186 °C.

Turning to `CNc1ccc(-c2ncn(-c3ccc(OC(F)(F)F)cc3)n2)cc1`, the melting point was 121 to 123 °C.

Regarding `Cn1ccnc1Sc1ccc(Nc2c(C#N)cnc3cc(/C=C/CCN4CCC(N5CCCC5)CC4)ccc23)cc1Cl`, the melting point fell in the range of 214 to 216 °C.

With `Cc1cc(N(C)Cc2ccc(-c3ccc(C(F)(F)F)cc3)nc2C)cc(C)c1OCC(=O)O`, the melting point was 137 to 138 °C.

Consider `COc1cc2c(c(OC(C)=O)c1)C1CCC3(C)C(=O)CCC3C1CC2` (stereo not given), for which the melting point was in the range of 144 to 145 °C.

Regarding `CC(C)(C)OC(=O)N1CCc2c(Br)cccc2C1`, the melting point lay in the range of 75.6 to 80.4 °C.

`CC(C)(C)OC(=O)Nc1cc(C(=O)NN)ccn1` yielded a melting point of 289 to 290 °C.

For `O=C(NC1CCCc2ccccc21)c1ccc([N+](=O)[O-])cc1` (stereo not given), the melting point was in the range of 156 to 157 °C.

`CC(C)c1nc(C(C)C)c(CSc2ccc(F)cc2)c(-c2ccc(F)cc2)c1CO` displayed a melting point of 119 to 121 °C.

Regarding `CC(=O)OCC1CCn2c(c(C3=C(c4ccccc4Cl)C(=O)OC3=O)c3ccccc32)C1` (stereo not given), the melting point fell in the range of 168 to 171 °C.

On to `COc1ccnc(Nc2nc(-c3cc(-c4ccccc4)no3)cs2)c1`, for which the melting point lay in the range of 177 to 179 °C.

`Cc1cc(C)c(OP(=O)(C(=O)c2c(C)cc(C)cc2C)c2ccccc2)c(C)c1` (stereo not given) had a melting point of 94 to 96 °C.

The molecule `C[C@H](NC(=O)c1c[nH]c2ncc(C3CC3)nc12)C(C)(C)O` had a melting point of 272 to 274 °C.

`CCCCc1nc2c(N)nc3cccnc3c2n1CCOc1ccccc1` yielded a melting point of 159 °C.

As to `COc1ccc(C2(C#N)CCC(=O)CC2)cc1`, the melting point fell in the range of 77.5 to 79.5 °C.

The molecule `COc1cc2c(cc1OC)-c1cc(OC)c(OC)cc1C2=Cc1ccnc2ccccc12` showed a melting point of 226 to 228 °C.

Regarding `CC(=O)OCc1ccc(-c2ccc(COC(C)=O)cc2)cc1`, the melting point is 86 to 87 °C.

`CC(CO)(Sc1cc2ccccc2[nH]1)c1ccccc1` (stereo not given): the melting point lay within 126 to 127 °C.

Molecule `O=C1COCCN1c1ccc(N2C[C@@H](CN(Cc3ccccc3)Cc3ccccc3)OC2=O)cc1` showed a melting point of 140 to 145 °C.

On to `CCCS(=O)c1nc(OS(C)(=O)=O)c(Cl)cc1Cl` (stereo not given), for which the melting point lay in the range of 92 to 94 °C.

`Oc1cc2ncnc(Nc3cccc(Cl)c3)c2cc1O` showed a melting point of 233 to 235 °C.

`c1ccc(CN(Cc2ccccc2)OCCCCCCCCON(Cc2ccccc2)Cc2ccccc2)cc1` displayed a melting point of 49 to 51 °C.

Take `Cc1ccc(S(=O)(=O)OCCCC2CCN(C(c3ccccc3)(c3ccccc3)c3ccccc3)CC2)cc1`: the melting point amounted to 131 °C.

In turn, `CC1=NC(SCc2ccccc2)=CC2=CN(C)NN21` displayed a melting point of 108 to 111 °C.

For the molecule `COc1cccc(CCN2C(=O)c3c(C)c(C)c(C)c(C)c3C2(O)c2ccc(F)cc2)c1` (stereo not given), the melting point was 181 °C.

In turn, `O=S(=O)(CC(F)(F)F)Nc1ccc(Oc2ccc(F)cc2F)cc1` had a melting point of 105 to 108 °C.

In turn, `CCCOc1cccc(NC(=O)c2ccccc2C)c1` came in with a melting point of 92 to 94 °C.

`COc1ccc(C2=NNC(=O)CC2)cc1CO` displayed a melting point of 207 to 208 °C.

Consider `COc1ccc(C)nc1Cn1c(NCCCN2CCOCC2)nc2ccc(CNc3cc(C)ccc3CCCO)cc21`, for which the melting point was 132 °C.

`N#Cc1ccc(-c2ccc3nc(-c4ccc(C#N)cc4)cn3c2)cc1` yielded a melting point of 292 to 294 °C.

Take `Cc1cccc(COc2cccc(OCc3coc(-c4ccc(F)cc4)n3)c2)c1C(=O)O`: the melting point is 159 to 160 °C.

`CN(Cc1cccc(-c2ccc(CC3SC(=O)NC3=O)cc2)c1)C(=O)c1cccnc1` (stereo not given): the melting point is 115 °C.

In the case of `CCNC(=O)c1ccc(N2CCN(Cc3cc4c(c(OCC)c3)OC(C)C(=O)N4)CC2)c(C)c1` (stereo not given), the melting point amounted to 200 °C.

For the molecule `CS(=O)(=O)Nc1ccc(C=C2CCOC2=O)cc1Oc1ccc(F)cc1F`, the melting point lay within 179 to 180 °C.

In turn, `NS(=O)(=O)c1ccc(NC(=O)CNC2CCCCC2)c(Cl)c1` registered a melting point of 213 to 215 °C.

In turn, `CC(C)N(C=O)C(=O)c1nc(Cl)c(Cl)[nH]1` displayed a melting point of 142 °C.

For the molecule `CCCCn1c(=O)c2cn(S(=O)(=O)CCCCl)nc2n(CCCC)c1=O`, the melting point lay in the range of 102 to 103 °C.

Molecule `CC(C)(C)c1cc(OCc2ccc(C#N)cc2)cc(C(C)(C)C)c1` came in with a melting point of 118 to 121 °C.

As to `CS(=O)(=O)Nc1cc(C(=O)C=O)ccc1OCc1ccccc1`, the melting point was 125 to 128 °C.

Molecule `Cc1c(N2CCN(Cc3ccccc3)C(C)C2)c(F)cc2c(=O)c(C(=O)O)cn(C3CC3)c12` (stereo not given) displayed a melting point of 170 to 171 °C.

In the case of `FC(F)(F)c1ccc(-n2ccc3c(Cl)nccc32)c(Cl)c1`, the melting point lay within 133 to 135 °C.

As for `O=C(NCC(O)c1ccccc1)C1CCCCC1` (stereo not given), the melting point was in the range of 118 to 119 °C.

Consider `Cc1ncnc(O)c1C`, for which the melting point lay in the range of 120 to 121 °C.

`O=C(CN1CC(c2ccc(F)cc2)CC1=O)ON1C(=O)CCC1=O` (stereo not given) displayed a melting point of 120 to 123 °C.

As for `CC(C)(C)n1c(=O)c2c(-c3ccc(F)cc3)ncn2c2ccccc21`, the melting point lay within 135 to 137 °C.

`COc1cc(C(=O)O)ccc1Cc1cn(C)c2ccc(C(=O)N(C)CC3CCCC3)cc12` displayed a melting point of 112 to 114 °C.

In the case of `O=S(=O)(c1ccccc1)n1ccc2ccc3c4cc(Br)ccc4[nH]c3c21`, the melting point is 173 to 175 °C.

`O=[N+]([O-])c1ccc(Cl)nc1Nc1ccccc1`: the melting point is 95 to 98 °C.

Turning to `C(=Cc1ccccc1)COc1ccc(C2OCCO2)cc1`, the melting point was 102 °C.

Molecule `Cc1cc(C#N)cc(C(=O)Nc2ccn(C)n2)n1` yielded a melting point of 201 °C.

The molecule `CSc1ccc2c(c1)C(=O)Cc1cc(C)ccc1O2` showed a melting point of 102 to 103 °C.

In turn, `CC(C)n1cc(-c2ccc(F)cc2)c(-c2ccc(F)cc2)c1C(=O)O` displayed a melting point of 212 °C.

`CCCCCCCCS(=O)c1ccc(CC(COC(C)=O)(COC(C)=O)NC(C)=O)cc1` (stereo not given) gave a melting point of 70 to 72 °C.

On to `Nc1cc(CO)ccc1Sc1nccnc1Cl`, for which the melting point lay within 148 to 150 °C.

`Cc1ccc2c(c1)C1CNCCC1N2` (stereo not given) came in with a melting point of 73 to 75 °C.

In the case of `CCCCc1nc2ccccc2n1Cc1ccc(-c2ccccc2C(=O)OC)cc1`, the melting point was in the range of 132 to 134 °C.

`CCOC(=O)C1=C(C)NC(C)=C(C(=O)OCC)C1c1cc(Cl)cc(Cl)c1` showed a melting point of 102 to 104 °C.

As for `COC(=O)C1=Cc2cc(Br)ccc2NCC1`, the melting point lay in the range of 143 to 145 °C.

Molecule `C=CCNc1ccc(N(CC(O)CO)CC(O)CO)cc1[N+](=O)[O-]` (stereo not given) displayed a melting point of 154 to 158 °C.

`COC(=O)Cc1csc(NC(C)=O)n1` registered a melting point of 122 to 123 °C.

Take `CC1Cc2cccc(S(N)(=O)=O)c2N1` (stereo not given): the melting point lay in the range of 110 to 112 °C.

`CCCCNN1C2=C(C=C(C)C1C(=O)OCC)CCC(=O)N2` (stereo not given) showed a melting point of 186 to 188 °C.

As for `O=C(c1cccs1)c1cnn2c(-c3cccc(-c4nnn(CCO)n4)c3)ccnc12`, the melting point is 134 °C.

`CCOCc1nc2c(N)nc3ccccc3c2n1CCCC1(C)OCCO1` had a melting point of 150 to 152 °C.

In turn, `CN(Cc1ccccc1)C(=O)c1c(-c2ccncc2)c(-c2ccc(F)cc2)nn1CCO` registered a melting point of 136 to 138 °C.

For the molecule `Cc1c(-c2ccccc2)c(N2CCC(N(C)C)C2)c2oc(C(C)(C)CO)nc2c1C#N` (stereo not given), the melting point lay in the range of 175 to 178 °C.

In the case of `CCN(CC)C(=O)n1cnc(S(=O)(=O)CC2CCCC2)n1`, the melting point lay in the range of 77 to 79 °C.

Consider `O=C1C=C(NNc2ccccc2)CCN1`, for which the melting point was 165 to 168 °C.

`FC(F)(F)c1cc(Nc2cc[nH]n2)nc(-c2cccnc2)n1` registered a melting point of 230 °C.

`CC1(C)C=Cc2cc(C#N)c(N)cc2O1` gave a melting point of 137 to 138 °C.

With `COc1ccc(C(=O)NCCOc2ccc(CC(Oc3ccccc3)C(=O)O)cc2)cn1` (stereo not given), the melting point fell in the range of 145 to 146 °C.

For `COc1cc(COc2nn(-c3ccccc3)cc2CCO)ccc1OCc1nc(-c2ccco2)oc1C`, the melting point is 123 to 124 °C.

For the molecule `Cc1cncnc1Nc1ccc(C(=O)CC2CCN(Cc3ccccc3)CC2)cc1`, the melting point is 211 to 213 °C.

For the molecule `COC(=O)c1cc(C(=O)N(C)C)c2cc(Cc3ccc(F)cc3)cnc2c1O`, the melting point is 219 to 220 °C.

The values above are taken from a melting point compilation (Tetko et al.; mined from patent text by program, amines drawn as free bases though some values may be those of a salt).
